Measured values published in article PMC7139703, “Thiopurine Derivative-Induced Fpg/Nei DNA Glycosylase Inhibition: Structural, Dynamic and Functional Insights” (International Journal of Molecular Sciences, 2020).
Where two headings read alike, the source gives them in different places.

Columns and labels:
LlFpg = biological target: T1, LlFpg (Lactococcus lactis subsp. cremoris, UniProt P42371); assay: LlFpg 8-oxoG-DNA glycosylase/AP lyase activity assay (Urea-PAGE radioassay); format: biochemical; conditions: for IC50: catalytic activity at 37 °C, compound stock (redox mixture) in DMSO, 20 nM 8-oxoG:C 24-mer, 2 nM LlFpg
T1 construct: made in house; host or cells: E. coli BH540 (fpg defective)
T1 sequence (P42371 2-273): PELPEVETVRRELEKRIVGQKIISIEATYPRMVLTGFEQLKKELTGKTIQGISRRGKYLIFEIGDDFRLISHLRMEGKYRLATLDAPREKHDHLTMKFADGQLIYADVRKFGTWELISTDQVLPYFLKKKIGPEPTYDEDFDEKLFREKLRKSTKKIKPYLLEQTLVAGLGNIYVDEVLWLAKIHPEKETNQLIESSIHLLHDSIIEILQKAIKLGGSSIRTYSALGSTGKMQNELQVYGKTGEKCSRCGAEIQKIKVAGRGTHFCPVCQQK
Experimental: Figure 1 Effect of 2-thioxanthine (2TX)-derivatives on Fpg activity. A total of 20 nM of 5′-[^32P]-8-oxoG-containing 24-bp DNA duplex (labeled on the damaged strand) was incubated with 2 nM of LlFpg alone (dimethyl sulfoxide (DMSO) control) or with the indicated 2TX and 2TX-derivatives (TXn) concentrations, as described in the “Materials and Methods” section. (a) Screening of TXn for Fpg inhibition. Averages and standard deviations were obtained from at least three independent experiments. Mono- and di-thiolated compounds are highlighted in red and blue, respectively. (b) Dose-response curves for best inhibitors. Each data point represents the mean value obtained from at least three independent measurements.
(§1) Fpg, hNeil1 and mvNei1 are bifunctional DNA glycosylases associated with concerted DNA glycosylase activity (cleavage of the N-glycosidic bond between the base lesion and the C1′ of the deoxyribose) and AP lyase activity that comprises the successive cleavage of the phosphodiester bonds at the 3′ and 5′ of the resulting abasic (AP) site, respectively (β, δ-elimination). Thus, AP sites that result from the excision of the damaged base are quantitatively converted into one nucleoside gap by these enzymes. The DNA glycosylase/AP lyase activity of each enzyme was measured by incubating 20 nM of 24-mer DNA duplexes ([OG:C] and [DHU:G] for Fpg and hNeil1/mvNei1, respectively) 5′-labeling on the damaged strand (see above) with 2 nM of Fpg, or mvNei1 for 15 min or, with 20 nM of hNeil1 for 30 min at 37 °C in 10 mM Tris-HCl, pH 7.6, 150 mM NaCl, 1 mM EDTA, 0.1 mg/mL BSA and 8% DMSO. The reaction was stopped by the addition of 1 volume of formamide loading buffer (96% formamide, 20 mM Tris/HCl pH 8.0 and 2 mM Na2EDTA), heated at 80 °C for 2 min and then analyzed by 20% Urea-PAGE, as previously described. […] Under these conditions, only 50% of the substrate is converted to the cleavage product (limiting enzyme concentration conditions). For an initial evaluation of the inhibitory effect, 40 µM of 2TX/TXn was used. The thio-compound was added to the reaction mixture before the final addition of the enzyme (competition condition). For the best identified inhibitors, a dose-response curve was generated and IC50^A determined (Figure 1 and Table 1).

hNeil1 = hNeil1 (Homo sapiens, UniProt Q96FI4); assay: hNeil1 DNA glycosylase/AP lyase activity assay on DHU:G 24-mer duplex; format: biochemical; design: Overproduction was performed as described above for full length hNeil1; 6His (C); made in house; host or cells: E. coli Rosetta2 (DE3); conditions: for effect on hNeil1 catalytic activity: 0.2 mM compound
Chain of hNeil1 (Q96FI4 whole entry): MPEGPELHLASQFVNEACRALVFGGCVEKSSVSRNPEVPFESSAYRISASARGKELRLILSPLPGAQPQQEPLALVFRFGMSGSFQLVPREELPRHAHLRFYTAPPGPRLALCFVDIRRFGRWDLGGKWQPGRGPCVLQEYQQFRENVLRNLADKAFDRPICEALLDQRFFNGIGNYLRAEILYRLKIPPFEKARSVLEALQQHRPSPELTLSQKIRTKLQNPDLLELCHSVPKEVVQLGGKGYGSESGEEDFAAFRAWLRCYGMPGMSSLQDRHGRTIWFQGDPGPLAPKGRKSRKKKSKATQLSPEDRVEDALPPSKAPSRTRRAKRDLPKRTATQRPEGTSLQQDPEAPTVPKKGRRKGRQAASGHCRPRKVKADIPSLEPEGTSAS
Experimental: Figure 4 Comparative analysis of the effect of 2TX and TXn on Fpg/Nei DNA glycosylases. Enzyme activities were measured as described in the Figure 1 legend using […] of a 5′-[^32P]-24-mer DNA duplex containing either an 8-oxoG opposite C for LlFpg or a […] (DHU) opposite G for hNeil1 and mvNei1. The DNA probe was incubated with the indicated protein concentration and 0.2 mM TXn compounds in the presence or absence of 1 mM dithiothreitol (DTT) and TCEP (a representative experiment is illustrated by the upper histograms). The DNA probe for EMSA was 0.1 nM of 5′-[^32P]-[…] DNA duplex containing THF with LlFpg and mvNei1 (bottom panels: gel autoradiography) with the indicated conditions and as described in ‘Materials and Methods’.
as §1

[1] = read-out: IC50app^A (Fpg/Nei enzyme catalysis) LlFpg
[2] = catalytic activity at 37 °C, compound stock in DMSO, DHU:G 24-mer, read-out: IC50app^A (Fpg/Nei enzyme catalysis) hNEIL1
[3] = IC50app^A (Fpg/Nei enzyme catalysis) LlFpg

`O=c1[nH]c(=S)[nH]c2nc[nH]c12` [Compound 2TX, 2-thioxanthine, reference compound] was tested. Which IC50 (LlFpg; [1]) did it give?
The IC50 was 48 ± 4 µM.

And the “effect on hNeil1 catalytic activity” value (hNeil1; Figure 4)?
The value was “did not significantly affect”.

What about the IC50 (hNeil1; [2]) of the same molecule?
Its IC50 is over 500 µM.

Which IC50 (LlFpg; [1]) does the source give for `O=c1[nH]c(=S)[nH]c2[nH]c(=S)[nH]c12` [TX19] here?
Its IC50 is 15 ± 1 µM.

And the “effect on hNeil1 catalytic activity” value (hNeil1; Figure 4)?
Its value is “apparent inhibitory effects”.

What about the “inhibition of hNeil1 DNA binding and catalytic activities in the presence of TCEP” value (hNeil1; 1 mM TCEP (DTT to a lesser extent), Figure 4) of the same molecule?
The value was “suppressed”.

What about the IC50 (hNeil1; [2]) of the same molecule?
Its IC50 is 19 ± 1 µM.

`FC(F)(F)c1nc(S)c2nc[nH]c2n1` [TX13, 2-trifluoromethyl-6-thiopurine] was tested. Which IC50 (LlFpg; [1]) did it give?
The IC50 was 7.5 ± 1 µM.

And the “effectiveness on Fpg relative to 2TX” value (LlFpg; from IC50app^A)?
Its value is “seven times more effective than 2TX”.

What about the IC50 (hNeil1) of the same molecule?
Its IC50 is over 250 µM.

Which IC50 (LlFpg; [3]) does the source give for `O=c1[nH]c2[nH]c(=S)[nH]c(=O)c2[nH]1` [TX14, 2-thio-6,8-dioxopurine] here?
The IC50 was 28 ± 7 µM.

What about the IC50 (hNeil1; [2]) of the same molecule?
Its IC50 is over 500 µM.

What does the source list for `Nc1ncnc2[nH]c(S)nc12` [TX27]?
IC50 (LlFpg; [3]): 20 ± 2 µM; IC50 (hNeil1; [2]): 160 ± 16 µM
